Test results reported in patent US20060160777A1, “New use of GABAbeta receptor agonists” (priority 2004, published 2006).
Where two headings read alike, the source gives them in different places.

Assays:
[1] = Pharmacokinetics in female dogs after single intravenous and oral doses; assay type: in vivo, dog; conditions: for half-life / clearance / Vd: Beagle and Labrador; for Vd: read-out: Vss (volume of distribution at steady state); for F (oral availability): oral vs intravenous
Experimental: In the present studies dogs received single intravenous and oral doses of 3-APPiA, (2R)-(3-amino-2-fluoropropyl) phosphinic acid (A), (2S)-(3-amino-2-hydroxypropyl) phosphinic acid A), (3-amino-2-oxopropyl) phosphinic acid (C) and 3-amino-2-fluoropropyl) phosphinic acid (D) at therapeutic doses. The plasma concentrations of each compound was determined by LC-MS. The mean values of the total plasma clearance (CL), the half-life (TA), the volume of distribution at steady state (Vs), the oral availability (F), are summarised in Table 5.
Eight female Beagle and four Labrador dogs were used. The dogs were identified by a number tattooed in the ear. The animals had free access to water and were fed once a day (GLP diet) at approximately 1 p.m. On the experimental day, the dogs had not eaten since approximately 1 p.m. on the day before and were not allowed to eat until 6 hours after dosing.
The test formulations were administered intravenously in a superficial front leg vein (this vein was not used for blood sampling during 2 hours after dosing) or orally by gavage. The gavage tube was rinsed with about 20 mL of water and emptied with 20 mL of air before it was taken out. The oral and intravenous dose volumes were 1 and 0.5 mL/kg, respectively
Blood samples of about 2 mL were taken from a superficial front leg vein pre-dose and at 5, 10, 20, 40, 90 minutes, 3, 5, 8 and 24 hours after dosing. The blood samples were collected in heparinized glass tubes (Venoject®) and centrifuged (10 min, 3000 g, +4° C.). The plasma was then transferred to plastic tubes and stored at about −20° C. until analysis.
The pharmacokinetic parameters were calculated by non-compartment analysis using WinNonlin Professional (Pharsight Corporation, California, USA). The area under the plasma concentration-time curve (AUC(0-t)) was calculated using a combination of the linear and logarithmic trapezoidal rule from the time of administration to the sampling time with the last determinable plasma concentration (3, 5, 8 or 24 h). For the intravenous bolus dose, the concentration at time zero (C(0)) was estimated by log-linear regression of the first two concentration-time points. The AUC(0-t) was extrapolated to infinity by adding Ct/k. Ct was the predicted plasma concentration at the time of the last plasma sample with a determinable concentration and k was the apparent terminal rate constant. Ct and k were obtained by linear least-squares regression analysis of the logarithm of the last 3 to 5 plasma concentrations versus time. The apparent terminal half-life (t1/2) was calculated as In 2/k, wherein k is elimination constant, i.e. the slope of the decreasing curve.
The oral bioavailability (F) for each dog was calculated from individual AUC (area under the curve) and dose values. The calculation was made as follows: (AUCpo·Doseiv/AUCic·Dosepo)·100.
Estimates of total plasma clearance and of volume of distribution were calculated from plasma concentration data obtained after intravenous bolus injection. The total plasma clearance (CL) was calculated as Dosei.v./AUCi.v., and the volume of distribution at steady is state (Vss) was calculated as MRTi.v.·CL. The mean residence time after intravenous administration (MRTi.v.) was calculated as AUMC/AUC for bolus injection, wherein AUMC is the area under the first-moment versus time curve. The results are presented by descriptive statistics. The pharmacokinetic parameters are presented as geometric mean and range.

[2] = tested on: citric acid-induced cough in conscious guinea pigs; experiment: Citric acid-induced cough in conscious guinea pigs, GABAB agonists given subcutaneously; assay type: in vivo, guinea pig
Description: Citric acid-induced cough was evoked in conscious guinea pigs. Male Hartley guinea pigs (300-400 g) were placed in a chamber with a continuous flow of air. Positive and negative pressure changes within the chamber were used to monitor the expiratory and inspiratory phases of respiration. A nebuliser was connected in series with the air pump, allowing aerosol delivery of citric acid (0.1-1 M).
Cough was defined based on the visual appearance of the respiratory manoeuvre, the characteristic sound, and by a signature pressure trace typified by an expiratory effort that produced a positive chamber pressure 10-20 times higher than that associated with tidal breathing and proceeded by a rapid and pronounced inspiratory effort. All data were recorded digitally. The total number of coughs and the estimated concentration of citric acid evoking 1, 2 and 5 coughs were determined for each experiment.
(§1) Four treatment groups were employed in this study: Vehicle control, baclofen, (2R)-(3-amino-2-fluoropropyl) phosphinic acid and (3-aminopropyl) phosphinic acid (3-APPiA). […] […] To assess CNS depressant effects of these compounds, their effects on respiratory rate and respiratory pattern (inspiratory and expiratory times) were assessed and compared to control.

conscious guinea pigs = experiment: Effects of subcutaneously administered GABAB agonists on baseline respiratory rate in conscious guinea pigs; conditions: placebo 96.2 ± 3.8
Experimental: as §1
B. Effects of Subcutaneously Administered GABAB Agonists on Baseline Respiratory Rate in Conscious Guinea Pigs

[3] = 0.3 mg/kg s.c., 30 min before challenge, citric acid 0 M, mean ± spread
[4] = 0.3 mg/kg s.c., citric acid 0.01 M
[5] = 0.3 mg/kg s.c., citric acid 0.1 M
[6] = 0.3 mg/kg s.c., citric acid 0.3 M
[7] = 0.3 mg/kg s.c., citric acid 1 M
[8] = 3 mg/kg s.c., citric acid 0.01 M
[9] = 3 mg/kg s.c., citric acid 0.1 M
[10] = 3 mg/kg s.c., citric acid 0.3 M
[11] = dog, in vivo, female dogs, geometric mean, dose 2-7 μmol/kg per compound, read-out: T1/2 (half-life) (converted)
[12] = dog, in vivo, female dogs, intravenous bolus, geometric mean, dose 2-7 μmol/kg per compound, read-out: CL (total plasma clearance)
[13] = dog, in vivo, female dogs, intravenous bolus, geometric mean, dose 2-7 μmol/kg per compound
[14] = female dogs, geometric mean, dose 2-7 μmol/kg per compound

| SMILES | Cumulative number of coughs evoked by citric acid [2, 3] | Cumulative number of coughs evoked by citric acid [2, 4] | Cumulative number of coughs evoked by citric acid [2, 5] | Cumulative number of coughs evoked by citric acid [2, 6] | Cumulative number of coughs evoked by citric acid [2, 7] | Cumulative number of coughs evoked by citric acid ([2]; 3 mg/kg s.c., citric acid 0 M) | Cumulative number of coughs evoked by citric acid [2, 8] | Cumulative number of coughs evoked by citric acid [2, 9] | Cumulative number of coughs evoked by citric acid [2, 10] | Cumulative number of coughs evoked by citric acid ([2]; 3 mg/kg s.c., citric acid 1 M) | half-life [1, 11] | clearance [1, 12] | Vd [1, 13] | F (oral availability) [1, 14] | Baseline respiratory rate (result of study B, mean) (conscious guinea pigs; 0.3 mg/kg s.c.) | further results |
| --- | --- | --- | --- | --- | --- | --- | --- | --- | --- | --- | --- | --- | --- | --- | --- | --- |
| NC[C@@H](F)C[PH](=O)O [A, (2R)-(3-amino-2-fluoropropyl) phosphinic acid] | 0 ± 0 | 0 ± 0 | 3.4 ± 1.1 | 11.4 ± 1.3 | 27.6 ± 3.7 | 0 ± 0 | 0.1 ± 0.1 | 1.9 ± 1.1 | 9.0 ± 3.8 | 15.4 ± 3.6 | – | – | – | – | – | half-life ([1]; female, dog, in vivo): 7.5 h; clearance ([1]; female, dog, in vivo, iv): 2.1 mL/min/kg; Cumulative number of coughs evoked by citric acid ([2]; 10 mg/kg s.c., citric acid 0 M): 0 ± 0; Cumulative number of coughs evoked by citric acid ([2]; 10 mg/kg s.c., citric acid 0.01 M): 0 ± 0; Cumulative number of coughs evoked by citric acid ([2]; 10 mg/kg s.c., citric acid 0.1 M): 0.6 ± 0.3; Cumulative number of coughs evoked by citric acid ([2]; 10 mg/kg s.c., citric acid 0.3 M): 3.8 ± 1.3; Cumulative number of coughs evoked by citric acid ([2]; 10 mg/kg s.c., citric acid 1 M): 9.7 ± 1.9 |
| NC[C@H](O)C[PH](=O)O [B, (2S)-(3-amino-2-hydroxypropyl) phosphinic acid] | – | – | – | – | – | – | – | – | – | – | 0.5 h | 6.67 mL/min/kg | 0.25 L/kg | 86% | – | – |
| NCC(CC(=O)O)c1ccc(Cl)cc1 (stereo not drawn) [Baclofen, 4-amino-3-(chlorophenyl)butanoic acid] | 0 ± 0 | 1.0 ± 0 | 3.0 ± 0.6 | 12.3 ± 7.4 | 25.7 ± 4.8 | 0 ± 0 | 0 ± 0 | 1.0 ± 0.5 | 6.0 ± 1.9 | 14.3 ± 3.8 | – | – | – | – | 96.8 ± 8.5 | Baseline respiratory rate (result of study B, mean) (conscious guinea pigs; 3 mg/kg s.c.): 78.1 ± 17.6 |
| NCC(=O)C[PH](=O)O [C, (3-amino-2-oxopropyl) phosphinic acid] | – | – | – | – | – | – | – | – | – | – | 2.5 h | 8.2 mL/min/kg | 0.74 L/kg | 60% | – | – |
| NCCC[PH](=O)O [Compound 3-APPiA, (3-aminopropyl) phosphinic acid] | 0 ± 0 | 0 ± 0 | 0.2 ± 0.2 | 7.8 ± 3.0 | 28.8 ± 2.9 | 0 ± 0 | 0 ± 0 | 1.7 ± 0.9 | 3.9 ± 1.6 | 16.1 ± 5.2 | 0.52 h | 20 mL/min/kg | 0.55 L/kg | 10% | 93.0 ± 5.6 | Baseline respiratory rate (result of study B, mean) (conscious guinea pigs; 3 mg/kg s.c.): 97.9 ± 4.2 |
| NCC(F)C[PH](=O)O (stereo not drawn) [D] | – | – | – | – | – | – | – | – | – | – | – | – | – | – | – | T1/2 (half-life) ([1]; dog, in vivo): 8.2 h; CL (total plasma clearance) ([1]; dog, in vivo, iv): 5.2 mL/min/kg; Vss (volume of distribution at steady state) ([1]; dog, in vivo, iv): 2.3 L/kg |
| CP(=O)(O)CCCN [SKF97541, (3-aminopropyl)methyl phosphinic acid] | 0 ± 0 | 0 ± 0 | 0.4 ± 0.2 | 3.8 ± 1.6 | 19.2 ± 5.8 | – | – | – | – | – | – | – | – | – | 68.6 ± 6.0 | Baseline respiratory rate (result of study B, mean) (conscious guinea pigs; 0.1 mg/kg s.c.): 79.2 ± 16.5 |
